From a melting point compilation (Tetko et al.)

Molecule CN=C(NC)NCc1ccccc1 has a melting point of 196 °C.
O=C1C(c2cccc3ccccc23)=[N+]([O-])c2cc([N+](=O)[O-])ccc21 gave a melting point of 223 °C.
Work on Cc1nn(-c2ccccc2)nc1C(=O)NNS(=O)(=O)c1ccccc1 yielded a melting point of 217 to 219 °C.
For CCCCCCCCCCCCC(Br)C(=O)O (stereo unspecified), the melting point was 42 °C.
Molecule O=[N+]([O-])c1ccc(C2Nn3c(COc4ccccc4)nnc3S2)cc1 (stereo unspecified) has a melting point of 184 °C.
Work on CCC1(O)CCC2C3CCC4=CC(=O)CCC4C3CCC21C (stereo unspecified) yielded a melting point of 140 °C.
In the case of COc1ccc(CCCO)cc1, the melting point is reported as 26 °C.
For CC(C)(C)OC(=O)N1CCCC(O)C1 (stereo unspecified), the melting point was 68 °C.
In the case of O=S(=O)(Cl)c1ccc(S(=O)(=O)N2CCOCC2)cc1, the melting point is reported as 150 to 152 °C.
For NNc1ccc(Cl)cc1[N+](=O)[O-], the melting point was 134 °C.
Cc1cccnc1NC(=O)C(C(F)(F)F)C(F)(F)F showed a melting point of 181 °C.
In the case of COc1ccc2cc(C(C)O)ccc2c1 (racemic), the melting point is reported as 111 to 114 °C.
Cc1cc([N+](=O)[O-])ccc1O showed a melting point of 96 °C.
For COP(=S)(OC)SCc1nc(N)nc(N)n1, the melting point was 165 °C.
In the case of N#Cc1cc(-c2ccccc2)oc1N, the melting point is reported as 196 to 197 °C.
CNCC(O)c1cccc(NS(C)(=O)=O)c1 (stereo unspecified) gave a melting point of 159 °C.
In the case of OC(Cn1cncn1)(c1ccc(F)cc1)c1ccccc1F (stereo unspecified), the melting point is reported as 130 °C.
C(#Cc1ccc(CCc2ccccc2)cc1)c1ccccc1 gave a melting point of 105 °C.
For Cc1cc(C)c(NC(N)=S)c(C)c1, the melting point was 231 °C.
With FC(F)(F)COCC(F)(F)F the melting point was under 25 °C.
CCOC(=O)c1c(C)oc(NC(=O)Nc2cccc(C(F)(F)F)c2)c1C(=O)OCC showed a melting point of 153 to 155 °C.
With OCC#CCO the melting point was 56 °C.
CC1=NN(c2ccc([N+](=O)[O-])cc2)C(=O)C1 gave a melting point of 220 to 225 °C.
For Cc1noc(N)c1C, the melting point was 119 to 120 °C.
For Oc1cc(O)ncn1, the melting point was 300 °C.
Work on NCCCCCCCC(=O)O yielded a melting point of 195 °C.
For Nc1cccc(Oc2ccccn2)c1, the melting point was 76 to 78 °C.
Cn1cc2cc([N+](=O)[O-])ccc2n1 gave a melting point of 129 °C.
c1ccc(C2Cc3ccccc3N2)cc1 (stereo unspecified) gave a melting point of 49 °C.
Molecule C=C(CCl)CCl has a melting point of 14 °C.
Work on c1ccc2c(c1)c(Cc1cn(CN3CCCCC3)c3ccccc13)cn2CN1CCCCC1 yielded a melting point of 138 °C.
With COc1ccc(C(=O)c2ccc(OC)c(OC)c2)cc1 the melting point was 79 °C.
With Cc1ccc(-c2cc(N)[nH]n2)cc1 the melting point was 153 to 154 °C.
N#CC1(c2ccc(F)cc2Cl)CCCC1 showed a melting point of 49 to 52 °C.
For O=C(CC(=O)c1cc(Br)ccc1O)c1ccccc1, the melting point was 100 to 103 °C.
Work on CC(C)CC(=O)C1C(=O)c2ccccc2C1=O yielded a melting point of 68.5 °C.
Molecule COc1ccc(OC)c(N=C=O)c1 has a melting point of 40 °C.
In the case of CC1(C)C(C=CC(=O)OC(C(F)(F)F)C(F)(F)F)C1C(=O)OC(C#N)c1cccc(Oc2ccccc2)c1 (stereo unspecified), the melting point is reported as 81.5 °C.
Work on N#CC(C#N)=NNc1cc(Cl)cc(Cl)c1 yielded a melting point of 192 to 194 °C.
CC1(C)OC(=O)C(=Cc2ccc(-c3ccccc3[N+](=O)[O-])o2)C(=O)O1 showed a melting point of 153 °C.
For CC(=O)Nc1ccc(/C=C/c2ccc([N+](=O)[O-])cc2)c([N+](=O)[O-])c1, the melting point was 236 °C.
In the case of O=C(O)Cc1ccc(CO)cc1, the melting point is reported as 133 °C.
In the case of C[Si](C)(C)C#CC1(O)Cc2ccccc21 (stereo unspecified), the melting point is reported as 47 °C.
Work on Cn1cncc1C(=O)O yielded a melting point of 247 to 248 °C.
With C=CN1C(=O)c2ccccc2C1=O the melting point was 86 °C.
With CC(=O)Nc1ccccc1/C=C/c1cc(/C=C/c2ccccc2)c([N+](=O)[O-])cc1[N+](=O)[O-] the melting point was 265 °C.
Work on CN(C)Cc1c(O)c(Br)c(C(=O)O)c(Br)c1O yielded a melting point of 208 °C.
Molecule N#CC1=C(N)Oc2c(c(C(F)(F)F)nn2-c2ccccc2)C1c1c(Cl)cc(Cl)cc1Cl (stereo unspecified) has a melting point of 207 °C.
Work on CC(C)COc1ccc2ccccc2c1 yielded a melting point of 31 °C.
With N#CC(C#N)=Cc1sccc1C=O the melting point was 126 to 130 °C.
Work on Cc1ccc(S(=O)(=O)NCCCN(CCCN(CCCNS(=O)(=O)c2ccc(C)cc2)S(=O)(=O)c2ccc(C)cc2)S(=O)(=O)c2ccc(C)cc2)cc1 yielded a melting point of 126 °C.
For O=Cc1c(Br)sc2ccc(Cl)cc12, the melting point was 139 to 140 °C.
Nc1nnc(C(F)(F)F)s1 gave a melting point of 224 °C.
Work on CC(C)(C)c1ccc(C(N)=S)cc1 yielded a melting point of 145 to 148 °C.
CC(=O)CCCCC(C)=O gave a melting point of 44 °C.
For CCC(CO)NC(=O)C1C=C2c3cccc4[nH]cc(c34)CC2N(C)C1 (stereo unspecified), the melting point was 172 °C.
With COC(=O)CC(=O)c1ccc(C(F)(F)F)cc1 the melting point was 57 to 62 °C.
In the case of CC(=O)Nc1nc(O)c2nc[nH]c2n1, the melting point is reported as 260 °C.
Molecule CCN(CC)c1nc2ccccc2c(=O)n1-c1ccccc1 has a melting point of 109 °C.
For Cc1cnc2c(ccc3c(C)c(C)cnc32)c1C, the melting point was 278 °C.
Molecule Cc1nc(-c2ccc(C(F)(F)F)cc2)sc1C=O has a melting point of 131 to 133 °C.
Molecule COc1ccc(C#N)c(OC(F)(F)F)c1 has a melting point of 32 °C.
In the case of Cc1cccc(NC(=O)c2ccccc2)c1, the melting point is reported as 125 °C.
In the case of CC(C)(C)OC(=O)N[C@@H](Cc1ccc(Cl)cc1)C(=O)O, the melting point is reported as 110 °C.
C=C1C(=O)C23C(OC)CC4C5(C)CCCC4(COC5=O)C2C(OC(C)=O)CC1C3O (stereo unspecified) showed a melting point of 126 to 127 °C.
For CC1(C)C(C(=O)OC(C#N)c2cccc(Oc3ccccc3)c2)C1C(Br)C(Br)(Br)Br (stereo unspecified), the melting point was 143 °C.
Cc1ccc(S(=O)(=O)NCCNS(=O)(=O)c2ccc(C)cc2)cc1 showed a melting point of 160 °C.
Cn1ccc2c(C=O)cccc21 showed a melting point of 27 to 29 °C.
For O=C(O)C1CCN(c2nccc(C(F)(F)F)n2)CC1, the melting point was 140 to 142 °C.
CC(=O)OC1CC2(O)C(C)C(=O)C3(C(O)CC4C(C)(C)CCC(OC(C)=O)C4(C)C13)C2O (stereo unspecified) showed a melting point of 234 °C.
Molecule COC(=O)C=Cc1ccc(Cl)cc1 has a melting point of 76 °C.
With CC(=O)N1C(=O)/C(=C/c2ccccc2)c2cc3c(cc21)N(C(C)=O)C(=O)/C3=C/c1ccccc1 the melting point was 256 °C.
Work on Cc1noc(C)c1C(=O)O yielded a melting point of 141 to 142 °C.
For O=C(Nc1nc(-c2ccc(Cl)cc2)cs1)c1ccccc1, the melting point was 120 °C.
N#CCC(=O)N1CCCC1 showed a melting point of 72.5 °C.
For Cc1c(C(=O)O)sc2sc(C(=O)O)c(C)c12, the melting point was 360 °C.
In the case of CC1=C2C3OC(=O)C(C)C3CCC2(C)C=CC1=O (stereo unspecified), the melting point is reported as 175 °C.
Molecule Cc1ccc[nH]1 has a melting point of -35.6 °C.
Molecule CCOC(=O)c1cc2cccnc2s1 has a melting point of 59 to 60 °C.
Work on CCC(=O)Cl yielded a melting point of -94 °C.
With N#Cc1cc(Cl)ccc1[N+](=O)[O-] the melting point was 89 to 94 °C.
Molecule CCN1CCCC1CNC(=O)c1cc(S(N)(=O)=O)ccc1OC (stereo unspecified) has a melting point of 178 °C.
O=[N+]([O-])c1ccc(C(O)C(O)CO)cc1 (stereo unspecified) gave a melting point of 93 to 97 °C.
Molecule O=C1NN(c2ccccc2)C(=O)C1=CNc1ccccc1 has a melting point of 276 °C.
Work on CCCCCC(C)=O yielded a melting point of -35 °C.
COc1cccc(/N=C(\C)c2c(O)c3ccccc3n(-c3ccccc3)c2=O)c1 showed a melting point of 178 to 179 °C.
For CC(=O)OC1CCC2C3CCC45OC4C(=O)C=CC5(O)C3CCC12C (stereo unspecified), the melting point was 178 °C.
CC1(C)OC(=O)C(=NNc2ccc(Br)cc2)C(=O)O1 showed a melting point of 259 to 260 °C.
With O=C(O)CCC(=O)Nc1ccc(S(=O)(=O)Nc2nccs2)cc1 the melting point was 194 °C.
O=C1CC2C(CC(O)C2CO)O1 (single isomer, unassigned; (-)) showed a melting point of 114 to 118 °C.
COc1c(OC)c(OC(C)=O)c2ccccc2c1OC(C)=O showed a melting point of 138 °C.
OC(c1ccc(Cl)cc1)(c1cncnc1)c1ccccc1Cl (stereo unspecified) showed a melting point of 118 °C.
NCC(O)COc1ccccc1 (stereo unspecified) gave a melting point of 146 °C.
Molecule CC1(C)OC2C(=O)OC(CO)C2O1 (stereo unspecified) has a melting point of 136 to 140 °C.
For CN(C)c1ccc(N=Nc2ccc(N=C=S)cc2)cc1, the melting point was 167 to 171 °C.
Molecule O=C(N=C=S)c1ccc(Cl)cc1 has a melting point of 45 to 46 °C.
CC(CC(=O)O)CC(C)(C)C (stereo unspecified) gave a melting point of -70 °C.
N#C/C(=N\Nc1ccc(Cl)cc1Cl)c1nc(-c2ccc(Cl)cc2)cs1 showed a melting point of 246 °C.
COc1cc(I)cc(C=O)c1O showed a melting point of 129 °C.
CCOCN(C(=O)CCl)c1c(C)cccc1CC showed a melting point of 10.6 °C.
With COC(=O)c1ccc(NC(C)C)c(N)c1 the melting point was 104 to 106 °C.
Work on NC(Cc1c[nH]c2ccc(F)cc12)C(=O)O (racemic) yielded a melting point of 238 to 239 °C.
CCCCCCCCOc1ccc(C=O)cc1OCCCCCCCC showed a melting point of 54 to 56 °C.
c1ccc2c(c1)CC1c3ccccc3CCN1C2 (stereo unspecified) showed a melting point of 85 °C.
With Nc1cc(C(F)(F)F)cc(C(F)(F)F)c1Br the melting point was 35 °C.
COc1cc(C=CC(=O)O)cc(OC)c1OC gave a melting point of 127 °C.
For CC(=O)Nc1ccc(S(=O)(=O)NCCO)cc1, the melting point was 126 to 127 °C.
O=P(OCCCl)(OCCCl)OCCCl gave a melting point of -35 °C.
With O=C(O)c1ccc2c(c1)OCCO2 the melting point was 133 to 137 °C.
COc1ccccc1C(=S)N1CCCCC1 gave a melting point of 85 °C.
Work on O=C(CBr)c1ccnc(Cl)c1 yielded a melting point of 55 to 56.5 °C.
With C#CCCCCCCCCCCC the melting point was -5 °C.
CCCCCCCOc1ccc(O)cc1 gave a melting point of 61.5 °C.
For CCNc1cc(O)ccc1C, the melting point was 88 °C.
With N#CC1(c2ccc(F)cc2)CCCCC1 the melting point was 33 to 38 °C.
Ic1ccc2[nH]ccc2c1 showed a melting point of 99 °C.
For CCc1c(Br)c(Br)c(Br)c(Br)c1Br, the melting point was 138 °C.
CC(C)(O)CCCC1=CCC(C=O)CC1 (stereo unspecified) showed a melting point of -30 °C.
In the case of Nc1ccc(Br)cc1C(=O)c1ccccc1F, the melting point is reported as 100 to 104 °C.
In the case of COc1ccc(OC)c(C(=O)CCCCC(=O)O)c1, the melting point is reported as 76 °C.
With CSc1sc(C(=O)O)c(Cl)c1S(=O)(=O)C(C)C the melting point was 227 to 230 °C.
OCc1cc(O)ccc1O gave a melting point of 100 °C.
For CCCCCCCCCCCCCBr, the melting point was 6.2 °C.
Work on O=C(Nc1ccc(N=Nc2ccc([N+]([O-])=Nc3ccc(NC(=O)c4ccccc4)cc3)cc2)cc1)c1ccccc1 yielded a melting point of 328 °C.
For COC1N(c2ccccc2)N=C(c2ccccc2)N1c1ccccc1 (stereo unspecified), the melting point was 80 °C.
O=C(OCc1ccccc1)c1ccc(O)cc1 gave a melting point of 112 °C.
